In patent US20130030017A1, “QUINOLINE DERIVATIVES AS ANTIBACTERIAL AGENTS” (priority 2005, published 2013):
≈ marks a conversion by molar mass, not a printed value.

What was measured:
[1] = system: Enterococcus faecalis (ATCC29212); assay: Microtitre plate assay, IC90 determination (EFA 29212); format: cell-based; details: 90% inhibitory concentration for bacterial growth, 37° C., resazurin fluorescence; for IC90 EFA 29212: 24 hours; for IC90: Enterococcus faecalis, ATCC29212, 24 h
Experimental: (§1) The bacteria used in this study were grown overnight in flasks containing 100 ml Mueller-Hinton Broth (Becton Dickinson—cat. no. 275730) in sterile de-ionized water, with shaking, at 37° C. Stocks (0.5 ml/tube) were stored at −70° C. until use. Bacteria titrations were performed in microtiter plates and colony forming units (CFUs) were determined. In general, an inoculum level of approximately 100 CFUs was used for susceptibility testing.
(§2) Flat-bottom, sterile 96-well plastic microtiter plates were filled with 180 μl of sterile deionized water, supplemented with 0.25% BSA. Subsequently, stock solutions (7.8× final test concentration) of compounds were added in 45 μl volumes in column 2 Serial five-fold dilutions (45 μl in 180 μl) were made directly in the microtiter plates from column 2 to reach column 11. Untreated control samples with (column 1) and without (column 12) inoculum were included in each microtiter plate. Depending on the bacteria type, approximately 10 to 60 CFU per well of bacteria inoculum (100 TCID50), in a volume of 100 μl in 2.8× Mueller-Hinton broth medium, was added to the rows A to H, except column 12. The same volume of broth medium without inoculum was added to column 12 in row A to H. The cultures were incubated at 37° C. for 24 hours under a normal atmosphere (incubator with open air valve and continuous ventilation). At the end of incubation, one day after inoculation, the bacterial growth was quantitated fluorometrically. Therefore resazurin (0.6 mg/ml) was added in a volume of 20 μl to all wells 3 hours after inoculation, and the plates were re-incubated overnight. A change in colour from blue to pink indicated the growth of bacteria. The fluorescence was read in a computer-controlled fluorometer (Cytofluor Biosearch) at an excitation wavelength of 530 nm and an emission wavelength of 590 nm. The % growth inhibition achieved by the compounds was calculated according to standard methods. The IC90 (expressed in μg/ml) was defined as the 90% inhibitory concentration for bacterial growth.

[2] = system: Pseudomonas aeruginosa (ATCC27853); assay: Microtitre plate assay, IC90 determination (PAE 27853); format: cell-based; details: 90% inhibitory concentration for bacterial growth, 37° C., resazurin fluorescence; for IC90 PAE 27853: 24 hours; for IC90: Pseudomonas aeruginosa, ATCC27853, 24 h
Experimental: as §1, §2

[3] = system: Streptococcus pneumoniae (ATCC6305); assay: Microtitre plate assay, IC90 determination (SPN 6305); format: cell-based; details: 90% inhibitory concentration for bacterial growth, 37° C., resazurin fluorescence; for IC90 SPN 6305: 24 hours; for IC90: Streptococcus pneumoniae, ATCC6305, 24 h
Experimental: as §1, §2

[4] = system: Streptococcus pyogens (ATCC8668); assay: Microtitre plate assay, IC90 determination (SPY 8668); format: cell-based; details: 90% inhibitory concentration for bacterial growth, 37° C., resazurin fluorescence; for IC90 SPY 8668: 24 hours; for IC90: Streptococcus, ATCC8668, 24 h
Experimental: as §1, §2

[5] = system: Staphylococcus aureus (ATCC29213); assay: Microtitre plate assay, IC90 determination (STA 29213); format: cell-based; details: 90% inhibitory concentration for bacterial growth, 37° C., resazurin fluorescence; for IC90 STA 29213: 24 hours; for IC90: Staphylococcus aureus, ATCC29213, 24 h
Experimental: as §1, §2

## COc1nc2ccc(C)cc2cc1C(c1ccccc1)C(O)(CCc1ccccc1)CCN(C)C (stereo not shown) [Compound 2]
[1]
  IC90 EFA 29212: 37.2 µg/mL (≈ 79.4 µM)
[2]
  IC90 PAE 27853: 37.2 µg/mL (≈ 79.4 µM)
[3]
  IC90 SPN 6305: 1.9 µg/mL (≈ 4.05 µM)
[4]
  IC90 SPY 8668: 37.2 µg/mL (≈ 79.4 µM)
[5]
  IC90 STA 29213: 7.4 µg/mL (≈ 15.8 µM)

## COc1ccc2nc(OC)c(C(c3ccccc3)C(O)(CCc3ccccc3)CCN(C)C)cc2c1 (stereo not shown) [Compound 3]
[1]
  IC90: 9.7 µg/mL (≈ 20 µM)
[2]
  IC90: 9.7 µg/mL (≈ 20 µM)
[3]
  IC90 SPN 6305: 3.4 µg/mL (≈ 7.02 µM)
[4]
  IC90: 9.7 µg/mL (≈ 20 µM)
[5]
  IC90: 12.2 µg/mL (≈ 25.2 µM)

## COc1nc2cccc(Br)c2cc1C(c1ccccc1)C(O)(CCc1ccccc1)CCN(C)C (stereo not shown) [Compound 6]
[3]
  IC90 SPN 6305: 1.7 µg/mL (≈ 3.19 µM)
[5]
  IC90 STA 29213: 8.5 µg/mL (≈ 15.9 µM)
other
  melting point: 126 °C

## CSc1nc2ccc(Br)cc2cc1C(c1ccccc1)C(O)(CCc1ccccc1)CCN(C)C (stereo not shown) [Compound 11]
[1]
  IC90: 43.7 µg/mL (≈ 79.5 µM)
[2]
  IC90: 43.7 µg/mL (≈ 79.5 µM)
[3]
  IC90 SPN 6305: 3.9 µg/mL (≈ 7.1 µM)
[4]
  IC90: 8.7 µg/mL (≈ 15.8 µM)
[5]
  IC90 STA 29213: 11.0 µg/mL (≈ 20 µM)

## COc1nc2ccc(Br)cc2cc1C(c1ccccc1)C(O)(CCc1ccccc1)CCN(C)C (stereo not shown) [Compound 18]
[1]
  IC90 EFA 29212: 10.6 µg/mL (≈ 19.9 µM)
[2]
  IC90 PAE 27853: 10.6 µg/mL (≈ 19.9 µM)
[3]
  IC90 SPN 6305: 2.1 µg/mL (≈ 3.94 µM)
[4]
  IC90 SPY 8668: 8.5 µg/mL (≈ 15.9 µM)
[5]
  IC90 STA 29213: 8.5 µg/mL (≈ 15.9 µM)

## COc1nc2ccc(Br)cc2cc1C(c1ccccc1)C(O)(CCc1ccccc1)CCN(C)C (stereo not shown) [Compound 19]
[1]
  IC90 EFA 29212: 1.7 µg/mL (≈ 3.19 µM)
[2]
  IC90 PAE 27853: 1.7 µg/mL (≈ 3.19 µM)
[3]
  IC90 SPN 6305: 2.1 µg/mL (≈ 3.94 µM)
[4]
  IC90 SPY 8668: 1.7 µg/mL (≈ 3.19 µM)
[5]
  IC90 STA 29213: 8.5 µg/mL (≈ 15.9 µM)

## COc1nc2ccc(Br)cc2cc1C(c1ccccc1)C(O)(CCc1ccccc1)CCN(C)C (stereo not shown) [Compound 20]
[1]
  IC90 EFA 29212: 1.7 µg/mL (≈ 3.19 µM)
[2]
  IC90 PAE 27853: 1.7 µg/mL (≈ 3.19 µM)
[3]
  IC90 SPN 6305: 1.1 µg/mL (≈ 2.06 µM)
[4]
  IC90 SPY 8668: 1.7 µg/mL (≈ 3.19 µM)
[5]
  IC90: 8.5 µg/mL (≈ 15.9 µM)

## COc1ccc(CCC(O)(CCN(C)C)C(c2ccc(Cl)cc2)c2cc3cc(Br)ccc3nc2OC)cc1 (stereo not shown) [Compound 22]
[1]
  IC90 EFA 29212: 9.5 µg/mL (≈ 15.9 µM)
[2]
  IC90: 1.9 µg/mL (≈ 3.18 µM)
[3]
  IC90 SPN 6305: 0.4 µg/mL (≈ 0.669 µM)
[4]
  IC90: 1.9 µg/mL (≈ 3.18 µM)
[5]
  IC90: 1.9 µg/mL (≈ 3.18 µM)

## COc1nc2ccc(Br)cc2cc1C(c1ccccc1)C(O)(CCc1ccc(F)cc1)CCN(C)C (stereo not shown) [Compound 26]
[1]
  IC90 EFA 29212: 1.7 µg/mL (≈ 3.08 µM)
[2]
  IC90 PAE 27853: 1.7 µg/mL (≈ 3.08 µM)
[3]
  IC90 SPN 6305: 2.0 µg/mL (≈ 3.63 µM)
[4]
  IC90 SPY 8668: 1.7 µg/mL (≈ 3.08 µM)
[5]
  IC90 STA 29213: 4.4 µg/mL (≈ 7.98 µM)

## COc1nc2ccc(Br)cc2cc1C(c1ccccc1)C(O)(CCc1ccc(F)cc1)CCN(C)C (stereo not shown) [Compound 28]
[1]
  IC90 EFA 29212: 3.9 µg/mL (≈ 7.07 µM)
[2]
  IC90 PAE 27853: 3.9 µg/mL (≈ 7.07 µM)
[3]
  IC90 SPN 6305: 0.9 µg/mL (≈ 1.63 µM)
[4]
  IC90 SPY 8668: 3.9 µg/mL (≈ 7.07 µM)
[5]
  IC90 STA 29213: 1.7 µg/mL (≈ 3.08 µM)

## CSc1nc2ccc(Br)cc2cc1C(c1ccc(Cl)cc1)C(O)(CCc1ccccc1)CCN(C)C (stereo not shown) [Compound 31]
[1]
  IC90: 58.4 µg/mL (≈ 100 µM)
[2]
  IC90: 9.3 µg/mL (≈ 15.9 µM)
[3]
  IC90 SPN 6305: 0.4 µg/mL (≈ 0.685 µM)
[4]
  IC90: 1.9 µg/mL (≈ 3.25 µM)
[5]
  IC90 STA 29213: 58.4 µg/mL (≈ 100 µM)

## CN(C)CCC(O)(CCc1ccccc1)C(c1ccc(Cl)cc1)c1cc2cc(Br)ccc2nc1N(C)C (stereo not shown) [Compound 33]
[1]
  IC90: 1.8 µg/mL (≈ 3.1 µM)
[2]
  IC90: 1.8 µg/mL (≈ 3.1 µM)
[3]
  IC90: 0.8 µg/mL (≈ 1.38 µM)
[4]
  IC90: 1.5 µg/mL (≈ 2.58 µM)
[5]
  IC90: 1.8 µg/mL (≈ 3.1 µM)

## COc1nc2ccc(Br)cc2cc1C(c1ccccc1)C(O)(CCc1ccc(F)cc1)CCN1CCCCC1 (stereo not shown) [Compound 35]
[1]
  IC90: 59.2 µg/mL (≈ 100 µM)
[2]
  IC90: 59.2 µg/mL (≈ 100 µM)
[3]
  IC90 SPN 6305: 3.7 µg/mL (≈ 6.25 µM)
[4]
  IC90: 9.4 µg/mL (≈ 15.9 µM)
[5]
  IC90: 59.2 µg/mL (≈ 100 µM)

## COc1nc2ccc(-c3cccnc3)cc2cc1C(c1ccccc1)C(O)(CCc1ccccc1)CCN(C)C (stereo not shown) [Compound 36]
[1]
  IC90: 42.2 µg/mL (≈ 79.4 µM)
[2]
  IC90: 42.2 µg/mL (≈ 79.4 µM)
[3]
  IC90: 1.7 µg/mL (≈ 3.2 µM)
[4]
  IC90: 16.8 µg/mL (≈ 31.6 µM)
[5]
  IC90: 1.7 µg/mL (≈ 3.2 µM)

## COc1nc2ccc(Br)cc2cc1C(c1ccccc1)C(O)(CCN(C)C)Cc1cccc2ccccc12 (stereo not shown) [Compound 42]
[1]
  IC90: 22.7 µg/mL (≈ 39.9 µM)
[2]
  IC90: 10.1 µg/mL (≈ 17.7 µM)
[3]
  IC90 SPN 6305: 2.3 µg/mL (≈ 4.04 µM)
[4]
  IC90: 4.5 µg/mL (≈ 7.9 µM)
[5]
  IC90 STA 29213: 9.0 µg/mL (≈ 15.8 µM)
